The target in the assay is T1, Diphosphomevalonate decarboxylase (Streptococcus pneumoniae serotype 2 (strain D39 / NCTC 7466), UniProt A0A0H2ZN59).
T1 sequence (A0A0H2ZN59 whole entry): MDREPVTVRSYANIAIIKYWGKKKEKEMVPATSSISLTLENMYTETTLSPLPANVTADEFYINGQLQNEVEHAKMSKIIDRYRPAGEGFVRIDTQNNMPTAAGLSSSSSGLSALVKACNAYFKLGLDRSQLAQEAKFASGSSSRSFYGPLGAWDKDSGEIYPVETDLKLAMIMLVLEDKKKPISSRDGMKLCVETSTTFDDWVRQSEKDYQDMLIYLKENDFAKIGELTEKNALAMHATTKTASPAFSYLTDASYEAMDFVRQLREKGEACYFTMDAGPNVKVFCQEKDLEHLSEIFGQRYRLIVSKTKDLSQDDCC
Briefly: diphosphomevalonate decarboxylase inhibition dose curves – biochemical, PK/LDH-coupled NADH fluorescence, hexokinase coupling counter-screen, dose response (AID 550). A general note: Counterscreens check selectivity or assay interference.

[1] abbreviates: inactive by the depositor's call.

In turn, `CCOc1cc(NC(=O)c2ccco2)c(OCC)cc1NC(=O)CCc1ccc(OC)cc1` [Furan-2-carboxylic acid {2,5-diethoxy-4-[3-(4-methoxy-phenyl)-propionylamino]-phenyl}-amide] showed an IC50 above 10000 µM. The compound `COc1ccc2c(c1)C1(C)CC(C)(C)N2C(=O)N1c1ccccc1` (stereo not drawn) [MLS000027457] showed an IC50 of 182 µM. `CCCC(=O)Nc1ccc(N2CCN(C(=O)CCC)CC2)cc1` [MLS000034431] displayed an IC50 above 10000 µM. With `O=C(c1ccc(F)cc1)N1CCC(N2CCCCCC2)CC1` [MLS000037563], the IC50 was above 10000 µM. Turning to `O=C(c1ccccc1F)N(Cc1ccccc1)C1CCS(=O)(=O)C1` (stereo not drawn) [MLS000039394], the IC50 was above 10000 µM.

Regarding `COC(=O)c1[nH]c2cccc(OC)c2c1NC(=O)CCN1CCN(c2ccccc2OC)CC1` [MLS000040529], 27.4 µM corresponded to half-maximal inhibition (IC50). Compound `O=C(CSc1ncnc2c1cnn2-c1ccccc1)Nc1ccc2c(c1)OCO2` [MLS000041214] displayed an IC50 above 10000 µM. Consider `Cc1ccc2cc3c(NC(=O)c4ccco4)nn(C)c3nc2c1` [MLS000041273], for which it took 45.7 µM to reach half-maximal inhibition (IC50).

On to `CCCn1c(C)nc2c(c1=O)c1nc3ccccc3nc1n2-c1ccc2c(c1)OCCO2` [MLS000042026], for which the half-inhibitory concentration (IC50) is above 10000 µM. The compound `CCN(CC)S(=O)(=O)c1ccc(NC(=O)c2cccc3c2C(=O)N(CCOC)C3)cc1` [MLS000045293] yielded an IC50 of 50.5 µM. For the compound `O=C(NCC1CCCO1)c1coc2nc3ccccc3nc12` (stereo not drawn) [MLS000046703], the IC50 came to 30.6 µM. Take `CC(NC(=O)c1cccc(N2CCCC2=O)c1)c1ccc2c(c1)OCCO2` (stereo not drawn) [MLS000046772]: the concentration for half-maximal inhibition (IC50) was above 10000 µM. In turn, `Cc1c(NC(=O)CN2c3cccc4cccc(c34)S2(=O)=O)c(=O)n(-c2ccccc2)n1C` [MLS000050268] displayed an IC50 of 34.2 µM. For `O=C(Nc1ccc2nc(-c3cccs3)c(-c3cccs3)nc2c1)N1CCOCC1` [MLS000050299], the IC50 was found to be 25.8 µM. Take `NC(=O)c1ccsc1NC(=O)c1nc(-c2ccccc2)n(-c2ccccc2)n1` [MLS000054020]: half-maximal inhibition (IC50) was put at 55.9 µM. `Cc1coc2cc3oc(=O)c4c(c3cc12)CCC4` [MLS000054228] had an IC50 of 52.9 µM. Same read-out and setting: as for `CC(C)CNC(=O)COc1ccc2c3c(c(=O)oc2c1)CCC3` [MLS000054673], the figure is 65.4 µM; as for `CCCN(CC(=O)c1cc(C)n(C)c1C)S(=O)(=O)c1cccc(C(F)(F)F)c1` [MLS000055141], above 10000 µM. In the case of `O=C(COc1cnc2ccccc2n1)NCCC1=CCCCC1` [MLS000056304], the IC50 stood at 188 µM.

In turn, `O=C(CSc1nnc2ccccn12)Nc1ccccc1C(=O)NC1CC1` [MLS000056825] yielded an IC50 above 10000 µM.

As for `Oc1nc(-c2ccncc2)nc2ccccc12` [MLS000056988], the IC50 is above 10000 µM. For the compound `O=S(=O)(Nc1cccc2ncccc12)c1cccs1` [MLS000057468], the IC50 was above 10000 µM. On to `Cc1ccc(-n2c(SCC(=O)NCc3ccco3)nnc2-c2cccnc2)c(C)c1` [MLS000058402], for which the concentration for half-maximal inhibition (IC50) is above 10000 µM.

In turn, `COc1cc(NC(=O)c2ccc3c(c2)OCO3)c2ncccc2c1` [MLS000061736] returned a 50% inhibitory concentration (IC50) of 52 µM. The compound `CC(C)(CO)NC(=O)C(c1ccccc1)c1ccccc1` [MLS000062471] registered an IC50 above 10000 µM. `O=C(Nc1ccc(-c2nc3ncccc3o2)cc1)c1ccco1` [MLS000062759] returned a half-inhibitory concentration (IC50) of 34.9 µM. `CCc1ccc(CCC(=O)Nc2ccc(C)c(C)c2)o1` [MLS000064736]: the IC50 was above 10000 µM. Take `C=CCNc1nc(N2CCCC2)nc2ccccc12` [MLS000066749]: the IC50 is 66.6 µM. Compound `CC(=O)Nc1cccc(NC(=O)CSc2nnnn2Cc2ccccc2)c1` [MLS000068005] registered an IC50 above 10000 µM. Take `CCC(=O)Nc1cccc(NC(=O)CSc2nnnn2Cc2ccccc2)c1` [MLS000068150]: the half-maximal inhibitory concentration (IC50) is above 10000 µM.

`COc1cc(NC(=O)c2ccco2)c(OC)cc1NC(=O)CCC(=O)Nc1cc(C)ccc1C` [MLS000072545]: the IC50 was above 10000 µM. `CCn1c(SCC(=O)Nc2cccc(C(C)=O)c2)nnc1C(C)C` [MLS000073205] yielded a half-maximal inhibitory concentration (IC50) above 10000 µM.

Take `COc1ccc(C2C3=C(OC(C)=O)c4ccccc4C3=Nc3c2c(=O)n(C)c(=O)n3C)cc1` (stereo not drawn) [MLS000073247]: the half-maximal inhibitory concentration (IC50) was above 10000 µM.

In turn, `COc1cc(C(=O)Nc2ccc3c(c2)OCO3)ccc1-n1cnnn1` [MLS000073665] gave an IC50 above 10000 µM. As to `O=C(Nc1ccc(N2CCCCC2)cc1)c1cccnc1` [MLS000074324], the 50% inhibitory concentration (IC50) is above 10000 µM. The same measure, in the same setting: in the case of `Cc1cc(N2CCN(C(=O)c3ccco3)CC2)n2nc(-c3cccc(Cl)c3)cc2n1` [MLS000076302] it was above 10000 µM; in that of `COc1ccc(-n2c(NC(=O)c3ccco3)c(C#N)c3nc4ccccc4nc32)cc1` [MLS000079925], 16.9 µM; in that of `CCCN1C(=O)C(NC(C)=O)c2cc(OC)ccc21` (stereo not drawn) [MLS000080624], above 10000 µM. Same read-out and setting: in the case of `CCOC(=O)Cc1csc(-n2sc3ccccc3c2=O)n1` [MLS000082162] it was 7.58 µM; in that of `Cc1cccn2c(=O)c3cc(C#N)/c(=N\C(=O)c4ccc5c(c4)OCO5)n(CC(C)C)c3nc12` [MLS000082296], 118 µM; in that of `Cn1c(=O)[nH]c(=O)c2c1nc(NC1CCCCC1)n2Cc1ccccc1` [MLS000083828], above 10000 µM.

In turn, `CN(c1nc2ccccc2n2c(-c3ccco3)nnc12)S(=O)(=O)c1ccccc1` [MLS000083900] came in with an IC50 of 35.8 µM. `CC(C)c1nc2oc3c(NCc4ccccn4)ncnc3c2c2c1COC(C)(C)C2` [MLS000084035] had an IC50 of 813 µM.

Turning to `O=P1(NC2CCCC2)COc2ccccc2OC1` [MLS000084153], the IC50 is above 10000 µM. On to `Cc1nc2oc3c(NCC4CCCO4)ncnc3c2c2c1COC(C)(C)C2` (stereo not drawn) [MLS000084527], for which half-maximal inhibition (IC50) was put at 22.3 µM. In the case of `Cc1nc2oc3c(NCc4ccccn4)ncnc3c2c2c1COC(C)(C)C2` [MLS000084529], the IC50 was above 10000 µM. As to `COC(=O)Sc1nnc(-c2ccc(Br)cc2)o1` [MLS000084961], the IC50 under setting [1] was 16.4 µM. The compound `Nc1nc2c(s1)CCc1c-2cnn1-c1ccccc1` [MLS000085948] yielded an IC50 under setting [1] of 9.51 µM.

Compound `Cc1cccc(C)c1NC(=O)C(c1ccccc1)N1CCN(C(=O)c2ccco2)CC1` (stereo not drawn) [MLS000086418] registered an IC50 above 10000 µM. `COc1cc2c(cc1NC(=O)c1ccc3c(c1)OCO3)oc1ccccc12` [MLS000088875] came in with a 50% inhibitory concentration (IC50) above 10000 µM. The compound `O=C1CCC(C(=O)N(Cc2ccco2)C2(C(=O)NC3CCCC3)CCCCC2)N1` (stereo not drawn) [MLS000090457] gave an IC50 above 10000 µM. On the same count and under the same terms, as for `COc1ccc(N2CCN(CCNS(=O)(=O)c3cccc4nsnc34)CC2)cc1` [MLS000090468], the figure is above 10000 µM; as for `O=C(CCc1nc(-c2ccccc2F)no1)NCCN1CCc2ccccc2C1` [MLS000091170], above 10000 µM. `COc1ccccc1-c1nc(C(N)=O)c2[nH]c(=O)n(-c3cccc(C)c3)c2n1` [MLS000094139] had an IC50 of 21.6 µM. The compound `CC(=O)NCCn1c(SCc2cc(=O)n3cc(Cl)ccc3n2)nc2ccccc2c1=O` [MLS000095256] returned a half-inhibitory concentration (IC50) of 70.6 µM. On the same count and under the same terms, as for `O=c1c2cc(N3CCOCC3)ccc2[nH]c(=S)n1Cc1ccccn1` [MLS000095415], the figure is 36.1 µM. Turning to `COCCCn1c(=S)[nH]c2ccc(N3CCOCC3)cc2c1=O` [MLS000095418], half-maximal inhibition (IC50) was put at 26.7 µM. Consider `COc1ccccc1CNc1ncnc2nc[nH]c12` [MLS000101257], for which the half-maximal inhibitory concentration (IC50) was above 10000 µM.

In general, IC50 refers to the concentration needed to halve the response being measured. Low readings indicate inhibition by little substance, high ones a need for much substance.

(Values after BindingDB's records for doi:10.7270/Q2N014XN (Srmlsc, 2007).)
